Measured values published in patent US20240299553A1, “INDOCARBOCYANINE LIPID DERIVATIVES FOR IN VIVO CARGO DELIVERY” (priority 2021, published 2024).

How the values were obtained:
[1] = TLC of liver extracts of mice injected with liposomes; format: in vivo; settings: 24 h and 48 h post-injection of DiI/Cy5-DSPE liposomes
Procedure: (§1) For extraction using a modified Bligh-Dyer method, 50-100 mg tissue was homogenized as described above, 10 parts of chloroform/methanol (2:1) were added to the homogenate (considering that tissue weight is 1 part), and the samples were mixed at 1400 rpm for 2 h at room temperature on Eppendorf Thermomixer. The tubes were centrifuged at 500 g for 10 min. The organic phase (bottom, approximately 80% of the added amount) was carefully collected, dotted on a PVDF membrane and scanned for DiI and Cy5 fluorescence as described above. Different dilutions of liposomes (standard curve) were scanned together with the samples. The percentage of the injected DiI and Cy5 in the extract was calculated from the standard curve and divided by tissue weight. The fluorescence of control non-injected organs was subtracted from that of injected organs. For TLC analysis, the mobile phase consisted of chloroform: methanol (9:1) with 1% trifluoroacetic acid and the samples were run on TLC Silica Gel 60 F254 plates (EMD Millipore).

[2] = system: 4T1 tumor cells and F4/80+ tumor-associated macrophages; experiment: Flow cytometry of 4T1 tumor single-cell suspension after i.v. labeled liposomes; format: in vivo, mice; settings: 72 h after a single i.v. injection; liposomes labeled with 0.2% dye
Procedure: (§2) 4T1 cell line was purchased from the ATCC and verified using a sequencing core. GL261 cells were obtained from the National Cancer Institute (NCI), and CT2A cells were a gift from Dr. Tom Seyfried (Boston College). LY2 cells were from Dr. Sana Karam, University of Colorado Anschutz Medical campus. Cells were grown at 37° C. in RPMI 1640 medium containing 10% heat-inactivated fetal bovine serum, 10 mM HEPES, 100 U/ml penicillin, and […] streptomycin (all from Corning Inc. New York, NY, USA). BALB/c mice were bred in-house. Mice of 8-10 weeks of age (females) were implanted with 0.5×10^6 cells into the mammary fat pad (4T1) or subcutaneously in the jaw region (LY2) and used for experiments 1 week later when tumors reached ˜200-300 mm^3. For brain tumors, C57BL/6 mice (6-8 weeks old) were implanted with a total 1×10^5 GL261 or CT-2A cells per animal using an established protocol. […]
A single-cell suspension of tumor tissue was prepared for flow cytometry analysis, as previously described. […] After incubation on ice for 20 minutes and washing, cells were analyzed for staining using the Guava EasyCyte HT flow cytometer (Merck KGaA). Cells were resuspended at ˜0.5 million/ml, and 20,000 events were detected. Dead cells and fragments were excluded with FSC/SSC dot plot, and the percentage of Cy5+ cells was analyzed with FlowJo software Version 10.6 (FlowJo, LLC). […]

[3] = Plasma fluorescence elimination profile after liposome injection; format: in vivo, mice; settings: 24 h post-injection; DiI/Cy5-DSPE liposomes
Procedure: as §2
Tumors and livers were placed in a 24-well plate and scanned as described above. […] Mean fluorescence was determined from 8-bit TIFF images using Fiji software by drawing a region of interest around the tumors and using the “Measure” function to determine mean gray values. […] For plasma fluorescence profile, plasma collected at different time points was serially diluted, dotted on a nitrocellulose membrane, scanned as above, and the mean fluorescence of dots was plotted versus time with Prism.

[4] = Lipid extraction of tumors and organs, dye biodistribution; format: in vivo, mice; settings: 48 h post-injection
Procedure: as §1

[5] = system: 4T1 syngeneic orthotopic breast carcinoma; experiment: Confocal microscopy of 4T1 tumor slices after i.v. injection of dual-labeled liposomes; format: in vivo, mice; settings: 24 h post-injection; EPC/DSPE-PEG2000 liposomes, 0.2 mole % DiI and Cy5-DSPE, i.v.
Procedure: Lipids at the following molar ratios: HSPC/Chol/DSPE-PEG2000 (57/38/5) or EPC/DSPE-PEG2000 (95:5) with addition of 0.2% ICL and/or 0.2% FPL were mixed and dried under a nitrogen stream. The dry lipid cake was resuspended in PBS for a total lipid concentration of 20 mM, then incubated at 60° C. for 30 minutes. The solution was then vortexed for 2 minutes and bath sonicated. Liposomes were extruded by a syringe extruder (Avestin, Ottawa, Canada) through Whatman Nucleopore Track-Etch Membranes (200 nm pore size, 15 times). HSPC-based liposomes were extruded at 60° C., EPC-based liposomes were extruded at room temperature. Size and zeta potential were measured at room temperature in the presence of 1% phosphate-buffered saline using Zetasizer Nano (Malvern, UK). Liposomes were stored at 4° C. at a final concentration of 10 mM (total lipid) for a maximum period of 8 weeks before use.
4T1 cell line was purchased from the ATCC and verified using a sequencing core. GL261 cells were obtained from the National Cancer Institute (NCI), and CT2A cells were a gift from Dr. Tom Seyfried (Boston College). LY2 cells were from Dr. Sana Karam, University of Colorado Anschutz Medical campus. Cells were grown at 37° C. in RPMI 1640 medium containing 10% heat-inactivated fetal bovine serum, 10 mM HEPES, 100 U/ml penicillin, and […] streptomycin (all from Corning Inc. New York, NY, USA). BALB/c mice were bred in-house. Mice of 8-10 weeks of age (females) were implanted with 0.5×10^6 cells into the mammary fat pad (4T1) or subcutaneously in the jaw region (LY2) and used for experiments 1 week later when tumors reached ˜200-300 mm^3. For brain tumors, C57BL/6 mice (6-8 weeks old) were implanted with a total 1×10^5 GL261 or CT-2A cells per animal using an established protocol. To determine the distribution of liposomes in tumors and organs, liposomes were injected with 50 μl of 10 mM total lipid intravenously. Blood was collected via periorbital plexus using heparin glass capillaries, and the plasma was separated by centrifugation at 500 g for 5 min. In some experiments, mice were preinjected before dissection with 50 μl of FITC-tomato lectin (1 mg/ml) and 50 μl Hoechst 33324 (2 mg/ml) to visualize the vasculature and the nuclei. Mice were sacrificed with carbon dioxide, followed by cardiac perfusion with PBS through the left ventricle.
Nikon Eclipse AR1HD inverted confocal microscope with 405 nm, 488 nm, 561 nm, and 640 nm excitation lasers and corresponding emission filters was used. For high magnification imaging, liposomes were diluted 1:200 in PBS, mixed with glycerol at 1:1 ratio and 2 μl were placed on slide. For liposomes in plasma, the samples were diluted 1:20 and mixed with glycerol. The preparations in glycerol were spread under a coverslip and imaged under Apo60 or Apo100 Oil objective at 2048×2048 resolution. For tumor imaging, tumors or whole brains were frozen on dry ice and sliced with a blade into 1-2 mm thick slices. The slices were placed on a glass slide and imaged using Plan Apo 10 objective. Channels' voltage and laser intensity were adjusted using the dual labeled liposomes placed on a slide and imaged under the same magnification. These parameters were calibrated before each imaging session using the batch of liposomes used in that experiment. For quantification, multiple random image areas from different slices of the tumor (both periphery and center) were acquired at 512×512 resolution. Images were quantified with Fiji using customized macros. Briefly, 8-bit gray image stacks were thresholded for fluorescence in the Cy3 and Cy5 channels and the percentages of binary (positive) areas were calculated using the “Measure” function. All the data were plotted with Prism version 8.3.0 (GraphPad, San Diego, CA).

CCCCCCCCCCCCCCCCCC(=O)OC[C@H](COP(=O)(O)OCCNC(=O)CCCCCN1C(=CC=CC=CC2=[N+](C)c3ccccc3C2(C)C)C(C)(C)c2ccccc21)OC(=O)CCCCCCCCCCCCCCCCC [Cy5-DSPE]
TLC of liver extracts of injected mice [1]: degradation and disappearance
accumulation in cells in the tumor [2]: minimal accumulation
dye cleared from the circulation [3]: approximately 80%
tissues with the highest dye amount [4]: highest in the tumor and kidney
dye amount in tumor and organ extracts over time ([4]; tumors, livers, spleens, kidneys, 1 h, 24 h): dropped over time in all the organs
extravasation and distribution in tumor [5]: mostly confined to blood vessels
